# Test results as given in patent US20230365563A1, “QUINAZOLINE COMPOUND AND APPLICATION THEREOF” (SHANGHAI PHARMACEUTICALS HOLDING CO., LTD., priority 2020, published 2023).
# Counter-ions that a name gives are not always drawn.
# Experiments:
# KRAS-G12D and SOS1 = molecular target: T1, KRAS-G12D and SOS1 (Homo sapiens, UniProt P01116, G12D); assay: Inhibition of KRAS-G12D/SOS1 binding (Cisbio binding kit, 665/615 ratio), Effect Embodiment A; settings: read-out: GTP-KRAS-G12D:SOS1 IC50
# T1 construct: purchased
# T1 sequence (P01116 1-188 isoform P01116-2 G12D): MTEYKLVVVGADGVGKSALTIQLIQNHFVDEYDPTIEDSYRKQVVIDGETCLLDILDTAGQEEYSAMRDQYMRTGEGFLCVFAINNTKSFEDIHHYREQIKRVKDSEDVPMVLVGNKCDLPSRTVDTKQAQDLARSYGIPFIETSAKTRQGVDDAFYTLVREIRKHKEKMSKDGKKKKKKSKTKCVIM
# Method in brief: (§1)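 Compounds are tested over eleven threefold dilution steps in duplicate, with final DMSO at 1%.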
# KRAS_G12D and cRAF = molecular target: T2, KRAS_G12D and cRAF (Homo sapiens, UniProt P01116, G12D); assay: Inhibition of KRAS_G12D/cRAF binding (Cisbio binding kit, 665/615 ratio), Effect Embodiment B; settings: read-out: GTP-KRAS-G12D:CRAF IC50
# T2 construct: purchased
# T2 sequence (P01116 1-188 isoform P01116-2 G12D): as above
# Method in brief: as §1
# KRAS_WT and SOS1 = molecular target: T3, KRAS_WT and SOS1 (Homo sapiens, UniProt P01116); assay: Inhibition of KRAS_WT/SOS1 binding (Cisbio binding kit, 665/615 ratio), Effect Embodiment C; settings: read-out: GTP-KRAS-WT:SOS1 IC50
# T3 construct: purchased
# T3 sequence (P01116 1-188 isoform P01116-2): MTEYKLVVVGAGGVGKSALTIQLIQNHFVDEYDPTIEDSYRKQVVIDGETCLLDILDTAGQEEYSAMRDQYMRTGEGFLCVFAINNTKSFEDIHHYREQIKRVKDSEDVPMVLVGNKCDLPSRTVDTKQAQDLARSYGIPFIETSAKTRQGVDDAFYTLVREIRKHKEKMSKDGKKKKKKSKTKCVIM
# Method in brief: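 Compounds tested as 3-fold, 11-point dilutions in duplicate at 1% DMSO final against the KRAS_WT/SOS1 binding system. IC50 derived by nonlinear regression fit.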
SMILES,IC50 (KRAS-G12D and SOS1),IC50 (KRAS_G12D and cRAF),IC50 (KRAS_WT and SOS1)
"C[C@@H](COc1nc(N2CC3CCC(C2)N3)c2cc(Cl)c(-c3cc(O)cc4ccccc34)c(F)c2n1)CN1C[C@@H](C)O[C@H](C)C1 (single isomer, unassigned) [Compound 216, 4-((S or R)-4-((1R,5S)-3,8-diazabicyclo[3.2.1]octan-3-yl)-6-chloro-2-((R)-3-((2R,6R)-2,6-dimethylmorpholinyl)-2-methylpropoxy)-8-fluoroquinazolin-7-yl)naphthalen-ol diformate]",51.8 nM,49.4 nM,2020 nM
"CC[C@@H]1CN(CCCOc2nc(N3CC4CCC(C3)N4)c3cc(Cl)c(-c4cc(O)cc5ccccc45)c(F)c3n2)C[C@H](CC)O1 (single isomer, unassigned) [Compound 221, 4-((S or R)-4-((1R,5S)-3,8-diazabicyclo[3.2.1]octan-3-yl)-6-chloro-2-(3-((2S,6R)-2,6-diethylmorpholinyl)propoxy)-8-fluoroquinazolin-7-yl)naphthalen-2-ol formate]",63.6 nM,175 nM,5030 nM
"CO[C@H]1C[C@H]2CC[C@@H](C1)N2C[C@@H](C)COc1nc(N2CC3CCC(C2)N3)c2cc(Cl)c(-c3cc(O)cc4ccccc34)c(F)c2n1 (single isomer, unassigned) [Compound 223, 4-((S or R)-4-((1R,5S)-3,8-diazabicyclo[3.2.1]octan-3-yl)-6-chloro-8-fluoro-2-((R)-3-((1R,3R,5S)-3-methoxy-8-azabicyclo[3.2.1]octan-8-yl)-2-methylpropoxy)quinazolin-7-yl)naphthalen-2-ol diformate]",17.5 nM,15.6 nM,1700 nM
"CO[C@@H]1C[C@H]2CC[C@@H](C1)N2C[C@@H](C)COc1nc(N2CC3CCC(C2)N3)c2cc(Cl)c(-c3cc(O)cc4ccccc34)c(F)c2n1 (single isomer, unassigned) [Compound 224, 4-((S or R)-4-((1R,5S)-3,8-diazabicyclo[3.2.1]octan-3-yl)-6-chloro-8-fluoro-2-((R)-3-((1R,3S,5S)-3-methoxy-8-azabicyclo[3.2.1]octan-8-yl)-2-methylpropoxy)quinazolin-7-yl)naphthalen-2-ol diformate]",13.2 nM,18.6 nM,1350 nM
"C[C@@H](COc1nc(N2CC3CCC(C2)N3)c2cc(Cl)c(-c3cc(O)cc4ccccc34)c(F)c2n1)CN1C[C@H](C)OC[C@@H]1C (single isomer, unassigned) [Compound 225, 4-((S or R)-4-((1R,5S)-3,8-diazabicyclo[3.2.1]octan-3-yl)-6-chloro-2-((R)-3-((2S,5S)-2,5-dimethylmorpholinyl)-2-methylpropoxy)-8-fluoroquinazolin-7-yl)naphthalenol formate]",17.2 nM,17.8 nM,969 nM
"C[C@@H](COc1nc(N2CC3CCC(C2)N3)c2cc(Cl)c(-c3cc(O)cc(Cl)c3C3CC3)c(F)c2n1)CN1C2CCC1COC2 (single isomer, unassigned) [Compound 227, 3-((7S or 7R)-2-((2R)-3-(3-oxa-8-azabicyclo[3.2.1]octan-8-yl)-2-methylpropoxy)-4-((1R,5S)-3,8-diazabicyclo[3.2.1]octan-3-yl)-6-chloro-8-fluoroquinazolin-7-yl)-5-chloro-4-cyclopropylphenol formate]",16.7 nM,23.4 nM,593 nM
"C[C@@H](COc1nc(N2CC3CCC(C2)N3)c2cc(Cl)c(-c3cc(O)cc4ccc(F)c(F)c34)c(F)c2n1)CN1C2CCC1COC2 (single isomer, unassigned) [Compound 228, ((4S or 4R) 4-(2-((2R)-3-(3-oxa-8-azabicyclo[3.2.1]octan-8-yl)-2-methylpropoxy)-4-((1R,5S)-3,8-diazabicyclo[3.2.1]octan-3-yl)-6-chloro-8-fluoroquinazolin-7-yl)-5,6-difluoronaphthalen-2-ol formate]",14.2 nM,18.3 nM,92.3 nM
"CCc1c(F)ccc2cc(O)cc(-c3c(F)cc4c(N5CC6CCC(C5)N6)nc(OC[C@H](C)CN5C6CCC5COC6)nc4c3F)c12 (single isomer, unassigned) [Compound 229a, 4-((7S or 7R)-2-((2R)-3-(3-oxa-8-azabicyclo[3.2.1]octan-8-yl)-2-methylpropoxy)-4-((1R,5S)-3,8-diazabicyclo[3.2.1]octan-3-yl)-6,8-difluoroquinazolin-7-yl)-5-ethyl-6-fluoronaphththalen-2-ol formate]",16.4 nM,11.8 nM,160 nM
"C[C@@H](COc1nc(N2CC3CCC(C2)N3)c2cc(Cl)c(-c3cc(O)cc4ccccc34)c(F)c2n1)CN1C2CC3CC1CC(C2)O3 (single isomer, unassigned) [Compound 230, 4-((S or R)-2-((R)-3-((1R,3R,5R,7R)-2-oxa-6-azadamantan-6-yl)-2-methylpropoxy)-4-((1R,5S)-3,8-diazabicyclo[3.2.1]octan-3-yl)-6-chloro-8-fluoroquinazolin-7-yl)naphthalen-2-ol diformate]",15.7 nM,28.1 nM,626 nM
"CN(C)C(=O)OCC1CCC2(COc3nc(N4CC5CCC(C4)N5)c4cc(Cl)c(-c5cc(O)cc6ccccc56)c(F)c4n3)CCCN12 (single isomer, unassigned) [Compound 232a]",13.7 nM,7.79 nM,10.3 nM
"CCc1c(F)ccc2cc(O)cc(-c3c(Cl)cc4c(N5CC6CCC(C5)N6)nc(OC[C@H](C)CN5C6CCC5COC6)nc4c3F)c12 (single isomer, unassigned) [Compound 233b, 4-((7R or 7S)-2-((2R)-3-(3-oxa-8-azabicyclo[3.2.1]octan-8-yl)-2-methylpropoxy)-4-((1R,5S)-3,8-diazabicyclo[3.2.1]octan-3-yl)-6-chloro-8-fluoroquinazolin-7-yl)-5-ethyl-6-fluoronaphthalen-2-ol formate]",9.1 nM,7.18 nM,227 nM
"C[C@@H](COc1nc(N2CC3CCC(C2)N3)c2cc(Cl)c(-c3cc(O)cc4ccc(F)cc34)c(F)c2n1)CN1C2CCC1COC2 (single isomer, unassigned) [Compound 234a, 4-((7S or 7R)-2-((2R)-3-(3-oxa-8-azabicyclo[3.2.1]octan-8-yl)-2-methylpropoxy)-4-((1R,5S)-3,8-diazabicyclo[3.2.1]octan-3-yl)-6-chloro-8-fluoroquinazolin-7-yl)-6-fluoronaphthalen-2-ol diformate]",11.8 nM,5.79 nM,200 nM
"Oc1cc(-c2c(Cl)cc3c(N4CC5CCC(C4)N5)nc(OCCCN4C5CC6CC4CC(C5)O6)nc3c2F)c2ccccc2c1 (single isomer, unassigned) [Compound 235, 4-((S or R)-2-(3-((1R,3R,5R,7R)-2-oxa-6-azadamantan-6-yl)propoxy)-4-((1R,5S)-3,8-diazabicyclo[3.2.1]octan-3-yl)-6-chloro-8-fluoroquinazolin-7-yl)naphthalen-2-ol formate]",52.4 nM,149 nM,1770 nM
